Test results reported in patent publication US5629298A, “Adenosine as a positive inotrop in the compromised heart” (University of Massachusetts Medical Center, priority 1995, dated 1997).
Like-named read-outs stand apart in the source and are kept apart here. Blank lines part the entries; values can stand above or below the compound they belong to.

Columns and labels:
rat ventricular myocytes = assay: Contractile function of individual ventricular myocytes (line scan camera edge detection, paced at 0.5 Hz); format: cell-based; settings: for activation at 10 µM / inhibition at 2 µM: Rattus norvegicus, Ventricular myocyte; for +dL/dtmax, maximal rate of shortening / -dL/dtmax, maximal rate of relaxation / DS, duration of shortening / LC, maximum length change (shortening) with contraction / TPS, time-to-peak shortening / TR, time to 75% relaxation: mean ± SE, N = 6; for inhibition at 2 µM: PIA at 2 μM
Method: Primary cultures of adult rat ventricular myocytes were prepared essentially according to previously described methods (Romano et al., Am. J. Physiol. 257:H1088 (1989)). Two male Sprague-Dawley rats (Charles River, Wilmington, Mass. or Harlan, Indianapolis, Ind.) were decapitated, and the hearts were rapidly excised and constant pressure (70 cm H2) and nonrecirculated) perfused for 10 minutes through the aortas with filtered (0.45 μm membrane filter) perfusing solution (NaCl, 118 mM; glucose, 10 mM; NaHCO3 25 mM; KCl, 4.69 mM; MgSO4 1.18 mM; and KH2 PO4, 1.18 mM; (pH 7.4)), to which […] was added, at 37° C. After equilibration, the hearts were constant pressure perfused with fresh physiological saline ("PS") containing no added Ca^2+ until spontaneous contractions ceased (i.e., ~30 seconds). The hearts were then perfused for 4-10 minutes in a nonrecirculating manner with PS containing 0.73 mg/ml collagenase, 0.16 mg/ml hyaluronidase, 1 mg/ml recrystallized bovine serum albumin ("BSA") and 48.4 μM Ca^2+ at a rate of 3-4 ml/min/heart. Ventricles, free of atria, were removed from the perfusion system, cut into 8 pieces and placed in a 50 ml Erlenmeyer flask with 5 ml of PS containing 0.73 mg/ml collagenase, 0.16 mg/ml hyaluronidase, 2.5 mg/ml BSA, and 50 μM Ca^2+ (incubation solution). The flask was gently shaken (40 cycles/min) in a reciprocating water bath with continuous gassing (95% O2, 5% CO2) for 7 minutes at 37° C. The incubation solution was aspirated and this shaking procedure was repeated with fresh incubation solution 3-5 times depending on the likelihood that the tissue was ready to dissociate. After the final incubation period, the solution was aspirated and replaced with 10 ml of fresh incubation solution. The flask was then shaken rapidly (120 cycles/min) for 10 minutes with gassing to dissociate the myocytes. The flask contents were filtered through a 250 μm nylon mesh into a 50 ml polypropylene centrifuge tube, to which 40 ml of PS containing 5.95 mg/ml BSA and 99.7 μm Ca^2+ (wash solution) was gradually added.
The myocytes were allowed to settle for 15 minutes, and the upper two thirds of the wash solution was aspirated. Upon the addition of 30-35 ml of wash solution, this settling step was repeated. The wash solution was aspirated and the myocyte pellet was resuspended in 10 ml of minimum essential medium ("MEM"). The myocyte suspension was allowed to settle for 5 minutes and then brought to a final volume of 22 ml with MEM. Two milliliters of the myocyte suspension was seeded onto each of 60 mm culture dishes containing 2 ml of MEM.
The contractile function of individual myocytes was assessed by dispersing 50-100 cells in a 506 μl myocyte chamber (11×23×2 mm deep). The chamber (FIG. 1) was continuously suffused (850 μl/min) with fresh suffusion solution ("SS") in mM: 136.4 NaCl, 4.7 KCl, 1.0 CaCl2, 10 hydroxyethylpiperzine-ethanesulfonicacid (HEPES), 1.0 NaHCO3, 1.2 MgSO4, 1.2 KH2 PO4, 10 glucose, 0.6 ascorbate, 1.0 pyruvate) at 20° C. The chamber was mounted on an inverted microscope stage and contained platinum wire electrodes for initiating myocyte contraction at 0.5 Hz (voltage 10% above threshold for 5 msec duration).
The image of the myocyte was projected via an inverted microscope at 300× onto a line scan camera (Fairchild, Model 1600R) containing a linear array (1×3456) of photodiodes. When aligned with the longitudinal axis of the cell the camera detected the movement of the 2 ends of the myocyte upon contraction (shortening and relengthening). […] When the myocyte was transilluminated, both ends of the cell were easily discriminated. Myocyte length and length change with respect to time for a single contraction was measured by determining the pixels in which the appropriate transitions between light and dark occurred. The line scan camera was calibrated with a stage micrometer scaled in 10 μm divisions. The signals from the camera were directed to a Hewlett Packard computer (Model Vectra RS/20C). […]

[1] = system: ventricular myocyte membrane adenylyl cyclase; assay: Adenylyl cyclase activity of ventricular myocyte membranes; format: biochemical, rat
Method: After a 3-4 hour incubation period, myocytes were harvested by placing the culture dishes on ice; aspirating and discarding the culture medium; scraping the attached cells into 1 ml of ice cold buffer (pH 7.4) containing 10 mM HEPES and 1 mM dithiothreitol (DTT); and transferring the mixture to a 40 ml centrifuge tube. The culture dishes were rinsed twice with buffer, and the rinses were added to the centrifuge tube. The myocytes were centrifuged at 45,000 x g for 45 minutes and the supernatant was discarded. The pellet was resuspended in 40 mM HEPES (pH 7.4) to yield 3.5-4 mg protein/ml and homogenized with a small clearance Dounce tissue grinder (8 strokes). The membranes were centrifugated as described above, resuspended (3-4 mg protein/ml) in 40 mM HEPES (pH 7.4), and assayed for adenylyl cyclase activity immediately or stored at -80° C. and assayed within 10 days.
The assay system used to measure adenylyl cyclase activity minimizes the formation of endogenous adenosine. The assay used was essentially as described by Romano et al. (supra). Myocyte membranes (15-25 μg protein) were incubated in 50 μl of a buffer containing 40 mM HEPES (pH 7.4), 5 mM MgCl2, 1 mM DTT, 5.5 mM KCl, 0.1 mM 2'-deoxy-cAMP (dcAMP), 0.1 mM 2'-deoxy ATP (dATP), 20 mM phosphoenolpyruvate, 2 units pyruvate kinase, 0.25 units adenosine deaminase, 1 mM ascorbic acid, 100 mM NaCl, 0.1 mM ethyleneglycol-bis (β-aminoethylether) N,N,N',N',-tetroaceticacid (EGTA), 10 μM guanosine 5'-triphosphate (GTP), and ~2×10^6 counts/minutes of [α-^32 P]dATP for 20 minutes at 30° C. The reaction was stopped by adding 40 μl of a solution containing 2% sodium dodecyl sulfate (SDS), 45 mM ATP, 1.3 mM cAMP, and [^3 H]dcAMP (~4000 count/min) and by boiling for 2 minutes.

rat heart = assay: Isolated perfused heart, normoperfused or hypoperfused (mechanically depressed): LVP, +dP/dtmax, -dP/dtmax; settings: atenolol; hypoperfusion
Method: Male Sprague-Dawley rats (500-550 g) were anesthetized with pentobarbital (40 mg/kg, i.p.) and treated with heparin (500 units, i.p.) for 15 minutes. Hearts were excised, rinsed in iced physiological saline ("PS") and perfused with PS (37° C.) via an aortic cannula at a constant rate of 18-20 ml/min. Perfusion pressure ranged from 50 to 60 mm Hg. The PS contained: NaCl, 118 mM; KCl, 4.7 mM; CaCl2, 2.5 mM; NaHCO3, 25 mM; KH2 PO4, 1.2 mM; MgSO4 1.2 mM; glucose 10 mM; and pyruvate 1.8 mM. The pH was maintained at 7.4 by gassing the PS with a 95% O2 /5% CO2 gas mixture. Platinum wire electrodes were inserted into the right atrium to allow pacing of the heart (300 contractions per minute) throughout the perfusion period. Developed left ventricular pressure (LVP) was measured with a saline-filled balloon inserted into the lumen of the left ventricle via the left atrium and attached by a polyethylene cannula to a pressure transducer. The pressure signal was electronically differentiated to obtain the maximum rates of left ventricular pressure development (+dP/dtmax) and relaxation (-dP/dtmax). Balloon volume was varied until the maximal obtainable dP/dt was attained. This optimal preload, ranging from 5 to 10 mm Hg, was maintained constant, permitting isovolumic contraction of the heart. Aortic perfusion pressure was monitored with another pressure transducer. All the LVP, +dP/dtmax, -dP/dtmax and aortic perfusion data were continually recorded on a multichannel polygraph. At the end of the experiment, the wet heart weights were determined; they ranged from 1.4 to 1.8 g.
After instrumentation, the hearts were normoperfused at 18-20 ml/min for 20 minutes, resulting in an aortic perfusion pressure of 50-60 mm Hg. Isoproterenol, adenosine, CGS-21680, DPCPX, atenolol, or a combination of these agents was administered for 1 to 2 minutes, via the aortic perfusion cannula, at 1/100th the perfusion flow rate, to achieve the stated PS concentrations. Isoproterenol was administered for only 5 seconds. To cause mechanical depression of the perfused hearts, the perfusion flow was lowered 5-6 ml/min. The resulting aortic perfusion pressure decreased to 20-30 mm Hg. The various agents either alone or in combination were administered via the PS to the hypoperfused hearts at 1/100th the perfusion flow rate, at the concentrations indicated.

[2] = Table 6, 10^-5 M SHA-082, 10^-5 M NECA, 10^-4 M adenosine, 2 × 10^-7 M DPCPX, 10^-5 M CGS-15943
[3] = addition of 0.1 μM DPCPX to 1 μM PIA + 0.1 μM ISO
[4] = Table 3, 1 μM PIA, 0.1 μM ISO, 0.1 μM DPCPX added sequentially every 8-10 min, maximum responses

Structure (SMILES): Cn1c(=O)c2c(nc(C=Cc3cccc(Cl)c3)n2C)n(C)c1=O [CSC, 8-(3-chlorostyryl)caffeine]
effect on the increase in the contractile variables elicited by 1 μM CGS-21680 (rat ventricular myocytes; CSC at 1 μM, in the presence of 0.2 μM DPCPX): prevented

Structure (SMILES): CCNC(=O)[C@H]1O[C@@H](n2cnc3c(N)ncnc32)[C@H](O)[C@@H]1O [NECA, N-ethylcarboxamidoadenosine]
activation at 10 µM (rat ventricular myocytes; read-out: increase in DS): 21%
activation at 10 µM (rat ventricular myocytes; read-out: increase in LC): 24%
activation at 10 µM (rat ventricular myocytes; read-out: increase in TPS): 20%
activation at 10 µM (rat ventricular myocytes; read-out: increase in TR): 28%
+dL/dtmax, maximal rate of shortening (rat ventricular myocytes; [2]): 203 ± 9 μm/msec
-dL/dtmax, maximal rate of relaxation (rat ventricular myocytes; [2]): 149 ± 12 μm/msec
DS, duration of shortening (rat ventricular myocytes; [2]): 350 ± 15 ms
LC, maximum length change (shortening) with contraction (rat ventricular myocytes; [2]): 21 ± 2 μm
TPS, time-to-peak shortening (rat ventricular myocytes; [2]): 140 ± 5 ms
TR, time to 75% relaxation (rat ventricular myocytes; [2]): 340 ± 12 ms
contractile responses in the presence of 10 μM CGS-15943 (rat ventricular myocytes; agonist at 10 μM): not observed
increase in adenylyl cyclase activity ([1]; NECA 0 to 1 mM (FIG. 10)): approximately two-fold
EC50 ([1]; without DPCPX, read-out: EC50 for activation of cyclase): 17 ± 5.7 µM

Structure (SMILES): CC(C)NCC(O)COc1ccc(CC(N)=O)cc1 (centres unmarked) [atenolol]
effect on the inotropic responses induced by adenosine or adenosine plus DPCPX (rat heart): did not affect
effect on the isoproterenol elicited contractile responses (rat heart): completely prevented

effect on the PIA inhibition of ISO stimulated adenylyl cyclase activity ([1]; DPCPX at 0.1 μM): prevented
Structure (SMILES): CCCn1c(=O)c2[nH]c(C3CCCC3)nc2n(CCC)c1=O [DPCPX, 1,3-dipropyl-8-cyclopentylxanthine]
effect on myocyte contractility when administered alone (rat ventricular myocytes; 100 μM adenosine or 0.2 μM DPCPX): without effect
effect on the PIA reduction of the ISO induced contractile responses (rat ventricular myocytes; DPCPX at 0.2 μM, ISO 0.2 μM, PIA 2 μM): reversed
+dL/dtmax, maximal rate of shortening (rat ventricular myocytes; [2]): 179 ± 9 μm/msec
-dL/dtmax, maximal rate of relaxation (rat ventricular myocytes; [2]): 147 ± 11 μm/msec
DS, duration of shortening (rat ventricular myocytes; [2]): 279 ± 15 ms
LC, maximum length change (shortening) with contraction (rat ventricular myocytes; [2]): 17 ± 1 μm
TPS, time-to-peak shortening (rat ventricular myocytes; [2]): 116 ± 3 ms
TR, time to 75% relaxation (rat ventricular myocytes; [2]): 264 ± 11 ms
further increase of the ISO induced enhancement in +dL/dtmax (rat ventricular myocytes; [3]): 40%
further increase of the ISO induced enhancement in LC (rat ventricular myocytes; [3]): 26%
lowering of DS below that observed in the presence of PIA+ISO (rat ventricular myocytes; [3]): 27%

Structure (SMILES): CC(Cc1ccccc1)Nc1ncnc2c1ncn2[C@@H]1O[C@H](CO)[C@@H](O)[C@H]1O (some centres unmarked) [PIA, phenylisopropyladenosine]
effect on ventricular myocyte contractile variables (rat ventricular myocytes; PIA at 1 μM alone): no effect
inhibition at 2 µM (rat ventricular myocytes; ISO 0.2 μM, read-out: reduction of the ISO-induced decrease in DS): 47%
inhibition at 2 µM (rat ventricular myocytes; ISO 0.2 μM, read-out: reduction of the ISO-induced decrease in TPS): 82%
inhibition at 2 µM (rat ventricular myocytes; ISO 0.2 μM, read-out: reduction of the ISO-induced decrease in TR): 37%
inhibition at 2 µM (rat ventricular myocytes; ISO 0.2 μM, read-out: reduction of the ISO-induced increase in +dL/dtmax): 60%
inhibition at 2 µM (rat ventricular myocytes; ISO 0.2 μM, read-out: reduction of the ISO-induced increase in -dL/dtmax): 78%
inhibition at 2 µM (rat ventricular myocytes; ISO 0.2 μM, read-out: reduction of the ISO-induced increase in LC): 91%
+dL/dtmax, maximal rate of shortening (rat ventricular myocytes; [4]): 115 ± 17 μm/msec
-dL/dtmax, maximal rate of relaxation (rat ventricular myocytes; [4]): 85 ± 21 μm/msec
DS, duration of shortening (rat ventricular myocytes; [4]): 374 ± 23 ms
LC, maximum length change (shortening) with contraction (rat ventricular myocytes; [4]): 16 ± 2 μm
TPS, time-to-peak shortening (rat ventricular myocytes; [4]): 153 ± 5 ms
TR, time to 75% relaxation (rat ventricular myocytes; [4]): 308 ± 8 ms
